Where two headings read alike, the source gives them in different places.
How the values were obtained:
[1] = molecular target: wild-type un-phosphorylated FGFR1 (Homo sapiens, UniProt P11362); experiment: FGFR Enzymatic Assay (FRET peptide phosphorylation), FGFR1; conditions: pre-incubated for 4 hours
[2] = molecular target: wild-type un-phosphorylated FGFR4 (Homo sapiens, UniProt P22455); experiment: FGFR Enzymatic Assay (FRET peptide phosphorylation), FGFR4
Experimental: (§1) The inhibitor potency of the exemplified compounds was determined in an enzyme discontinuous assay that measures peptide phosphorylation using FRET measurements to detect product formation. Inhibitors were serially diluted in DMSO and a volume of 0.2 μL was transferred to the wells of a 384-well plate. […] Appropriate controls (enzyme blank and enzyme with no inhibitor) were included on the plate. […] The 10 μL/well reaction concentration of the peptide substrate was 500 nM whereas the ATP concentration was maintained near or below the ATP Km. The ATP Km values were pre-determined in a separate series of experiments. The reaction plate was incubated at 25° C. for 1 hr and the reactions were ended with the addition of 5 μL/well of quench solution (50 mM Tris, 150 mM NaCl, 0.5 mg/mL BSA, pH 7.8; 45 mM EDTA, 600 nM staurosporin, with Perkin Elmer Lance Reagents at 3.75 nM Eu-antibody PY20 and 180 nM APC-Streptavidin). The plate was allowed to equilibrate for ˜10 minutes at ambient temperature before scanning on a PheraStar plate reader (BMG Labtech) instrument.
(§2) Either GraphPad prism or XLfit was used to analyze the data. The IC50 values were derived by fitting the data to a four parameter logistic equation producing a sigmoidal dose-response curve with a variable Hill coefficient. Prism equation: Y=Bottom+(Top-Bottom)/(1+10^((Log IC50-X)*Hill slope)); XLfit equation: Y=(A+((B−A)/(1+((X/C)^D)))) where X is the logarithm of inhibitor concentration and Y is the response.
(§3) GraphPad prism3 was used to analyze the data. The IC50 values were derived by fitting the data to the equation for a sigmoidal dose-response with a variable slope. Y=Bottom+(Top-Bottom)/(1+10^((Log IC50-X)*Hill Slope)) where X is the logarithm of concentration and Y is the response.
(§4) The data in Table 1 was measured in wild-type un-phosphorylated FGFR1, FGFR2, FGFR3, and FGFR4 proteins.

[3] = molecular target: wild-type un-phosphorylated FGFR2 (Homo sapiens, UniProt P21802); experiment: FGFR Enzymatic Assay (FRET peptide phosphorylation), FGFR2
Chain of wild-type un-phosphorylated FGFR2 (P21802 22-821): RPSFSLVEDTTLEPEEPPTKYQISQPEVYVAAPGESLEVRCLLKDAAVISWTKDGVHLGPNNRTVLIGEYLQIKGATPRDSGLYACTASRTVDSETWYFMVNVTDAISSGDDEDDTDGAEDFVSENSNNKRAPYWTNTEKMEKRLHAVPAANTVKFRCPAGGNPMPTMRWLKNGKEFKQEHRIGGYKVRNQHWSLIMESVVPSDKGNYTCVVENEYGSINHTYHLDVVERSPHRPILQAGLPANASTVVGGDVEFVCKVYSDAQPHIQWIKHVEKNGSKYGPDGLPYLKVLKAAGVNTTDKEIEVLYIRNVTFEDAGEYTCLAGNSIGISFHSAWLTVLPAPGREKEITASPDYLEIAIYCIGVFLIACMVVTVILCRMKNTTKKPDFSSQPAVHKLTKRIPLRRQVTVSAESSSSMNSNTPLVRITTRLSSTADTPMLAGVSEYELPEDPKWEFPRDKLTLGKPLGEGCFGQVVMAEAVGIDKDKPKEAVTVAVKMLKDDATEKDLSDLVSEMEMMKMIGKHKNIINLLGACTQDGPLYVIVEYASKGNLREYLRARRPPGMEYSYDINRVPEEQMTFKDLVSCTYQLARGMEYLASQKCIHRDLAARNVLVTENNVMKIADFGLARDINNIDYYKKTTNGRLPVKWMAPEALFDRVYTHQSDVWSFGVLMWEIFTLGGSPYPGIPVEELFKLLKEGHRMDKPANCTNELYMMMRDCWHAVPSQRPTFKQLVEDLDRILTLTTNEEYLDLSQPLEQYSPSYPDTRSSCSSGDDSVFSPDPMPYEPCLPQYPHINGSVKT
Experimental: as §1, §2, §3, §4

[4] = molecular target: wild-type un-phosphorylated FGFR3 (Homo sapiens, UniProt P22607); experiment: FGFR Enzymatic Assay (FRET peptide phosphorylation), FGFR3
Chain of wild-type un-phosphorylated FGFR3 (P22607 23-806): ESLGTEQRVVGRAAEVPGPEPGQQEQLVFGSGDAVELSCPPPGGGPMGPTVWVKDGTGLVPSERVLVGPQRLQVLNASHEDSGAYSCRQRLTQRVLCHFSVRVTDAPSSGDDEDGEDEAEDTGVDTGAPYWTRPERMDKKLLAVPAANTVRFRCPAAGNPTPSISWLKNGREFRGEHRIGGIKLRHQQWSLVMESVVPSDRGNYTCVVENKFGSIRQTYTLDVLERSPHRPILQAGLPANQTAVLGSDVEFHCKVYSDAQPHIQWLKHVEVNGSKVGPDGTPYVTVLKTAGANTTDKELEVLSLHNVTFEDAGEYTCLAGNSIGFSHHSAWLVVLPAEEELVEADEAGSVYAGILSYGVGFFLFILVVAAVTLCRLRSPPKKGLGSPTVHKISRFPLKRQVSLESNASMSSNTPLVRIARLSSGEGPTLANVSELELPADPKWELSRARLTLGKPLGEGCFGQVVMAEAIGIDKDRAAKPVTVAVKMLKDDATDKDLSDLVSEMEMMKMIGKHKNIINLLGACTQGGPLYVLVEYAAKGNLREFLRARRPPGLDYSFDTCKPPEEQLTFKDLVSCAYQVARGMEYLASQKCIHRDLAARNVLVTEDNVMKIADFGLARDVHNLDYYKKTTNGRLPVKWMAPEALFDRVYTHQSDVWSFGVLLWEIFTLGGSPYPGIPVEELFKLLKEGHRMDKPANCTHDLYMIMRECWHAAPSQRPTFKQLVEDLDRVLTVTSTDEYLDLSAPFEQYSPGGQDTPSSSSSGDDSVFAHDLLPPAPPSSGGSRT

[5] = FGFR1, wild-type un-phosphorylated FGFR1
[6] = read-out: FGFR1, wild-type un-phosphorylated FGFR1
[7] = read-out: FGFR4, wild-type un-phosphorylated FGFR4, pre-incubated for 4 hours

Chain of wild-type un-phosphorylated FGFR1 (P11362 22-822): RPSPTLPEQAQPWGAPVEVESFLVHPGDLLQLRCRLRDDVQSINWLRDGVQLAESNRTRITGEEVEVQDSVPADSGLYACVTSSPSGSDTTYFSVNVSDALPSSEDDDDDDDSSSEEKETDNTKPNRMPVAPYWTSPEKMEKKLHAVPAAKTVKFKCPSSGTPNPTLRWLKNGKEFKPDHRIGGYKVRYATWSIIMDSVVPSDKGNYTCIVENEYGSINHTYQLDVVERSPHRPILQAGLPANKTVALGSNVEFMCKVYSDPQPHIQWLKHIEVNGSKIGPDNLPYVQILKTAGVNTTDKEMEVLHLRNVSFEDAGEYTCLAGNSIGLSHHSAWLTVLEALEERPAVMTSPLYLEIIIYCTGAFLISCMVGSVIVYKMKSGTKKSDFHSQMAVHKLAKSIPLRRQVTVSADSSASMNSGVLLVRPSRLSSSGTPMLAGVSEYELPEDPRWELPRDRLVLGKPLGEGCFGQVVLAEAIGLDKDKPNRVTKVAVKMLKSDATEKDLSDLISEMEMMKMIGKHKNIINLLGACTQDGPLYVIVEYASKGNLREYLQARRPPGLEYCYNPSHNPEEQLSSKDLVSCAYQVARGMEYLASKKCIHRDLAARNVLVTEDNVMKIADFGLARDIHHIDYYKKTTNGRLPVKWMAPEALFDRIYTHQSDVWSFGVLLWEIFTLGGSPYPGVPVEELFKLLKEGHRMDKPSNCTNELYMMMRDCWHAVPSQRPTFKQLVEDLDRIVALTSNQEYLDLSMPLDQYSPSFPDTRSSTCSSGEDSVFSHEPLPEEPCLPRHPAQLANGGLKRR
Chain of wild-type un-phosphorylated FGFR4 (P22455 22-802): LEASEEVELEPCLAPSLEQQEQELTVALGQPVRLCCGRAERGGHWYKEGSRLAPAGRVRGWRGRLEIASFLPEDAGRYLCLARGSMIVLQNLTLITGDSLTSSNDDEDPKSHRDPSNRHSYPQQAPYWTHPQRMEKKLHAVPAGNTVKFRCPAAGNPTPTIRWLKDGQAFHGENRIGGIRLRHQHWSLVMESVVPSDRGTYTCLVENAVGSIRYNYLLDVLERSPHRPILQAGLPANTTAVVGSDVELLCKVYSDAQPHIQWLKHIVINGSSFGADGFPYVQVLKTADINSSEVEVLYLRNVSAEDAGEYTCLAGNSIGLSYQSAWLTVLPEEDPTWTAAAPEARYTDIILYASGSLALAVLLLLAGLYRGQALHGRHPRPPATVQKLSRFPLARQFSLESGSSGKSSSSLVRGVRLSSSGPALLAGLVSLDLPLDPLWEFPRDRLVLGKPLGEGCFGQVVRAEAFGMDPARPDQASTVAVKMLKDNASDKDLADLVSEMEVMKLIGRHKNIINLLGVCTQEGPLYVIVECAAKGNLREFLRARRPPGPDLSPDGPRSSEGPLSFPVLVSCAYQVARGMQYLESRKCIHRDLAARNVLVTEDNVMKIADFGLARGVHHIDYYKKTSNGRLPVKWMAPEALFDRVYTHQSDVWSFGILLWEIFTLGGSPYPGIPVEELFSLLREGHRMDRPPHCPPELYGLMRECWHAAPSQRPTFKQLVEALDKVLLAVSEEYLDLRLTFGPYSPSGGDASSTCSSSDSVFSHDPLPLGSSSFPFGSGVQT

| Compound | IC50 [1, 5] | IC50 [2] | IC50 ([3]; read-out: FGFR2, wild-type un-phosphorylated FGFR2, pre-incubated for 4 hours) | IC50 [4] | IC50 [3] | IC50 [1, 6] | IC50 [2, 7] |
| --- | --- | --- | --- | --- | --- | --- | --- |
| COc1cc2[nH]nc(-c3ccc(N4CC(N(C)C(=O)CO)C4)nc3)c2nc1-c1cccc(C)c1C [Example 98, N-(1-(5-(5-(2,3-Dimethylphenyl)-6-methoxy-1H-pyrazolo[4,3-b]pyridin-3-yl)pyridin-2-yl)azetidin-3-yl)-2-hydroxy-N-methylacetamide] | 40 to 100 nM | > 100 nM |  | < 6 nM | < 6 nM |  |  |
| COc1cc2[nH]nc(-c3ccc(C4CCN(C(=O)CO)CC4)nc3)c2nc1-c1cccc2c1CCC2 [Example 100, 1-(4-(5-(5-(2,3-Dihydro-1H-inden-4-yl)-6-methoxy-1H-pyrazolo[4,3-b]pyridin-3-yl)pyridin-2-yl)piperidin-1-yl)-2-hydroxyethan-1-one] |  |  |  | < 6 nM | < 6 nM | 6 to 40 nM | 6 to 40 nM |
| COc1cc2[nH]nc(-c3ccc(C4CCN(C(=O)[C@@H]5CCCN5C)CC4)nc3)c2nc1-c1cccc2c1CCC2 [Example 108, 5-(2,3-Dihydro-1H-inden-4-yl)-6-methoxy-3-(6-(1-(methyl-L-prolyl)piperidin-4-yl)pyridin-3-yl)-1H-pyrazolo[4,3-b]pyridine] |  |  |  | < 6 nM | < 6 nM | 6 to 40 nM | 6 to 40 nM |
| COc1cc2[nH]nc(-c3ccc(N4CCN(C)CC4)nc3)c2nc1-c1cccc2c1CCC2C#N (stereo not shown) [Example 110, 4-(6-Methoxy-3-(6-(4-methylpiperazin-1-yl)pyridin-3-yl)-1H-pyrazolo[4,3-b]pyridin-5-yl)-2,3-dihydro-1H-indene-1-carbonitrile] |  |  |  | < 6 nM | < 6 nM | 6 to 40 nM | 6 to 40 nM |
| COc1cc2[nH]nc(-c3cnn(C4CCN(C(C)=O)CC4)c3)c2nc1-c1cccc2c1CCC2C#N (stereo not shown) [Example 112, 4-(3-(1-(1-Acetylpiperidin-4-yl)-1H-pyrazol-4-yl)-6-methoxy-1H-pyrazolo[4,3-b]pyridin-5-yl)-2,3-dihydro-1H-indene-1-carbonitrile] | 40 to 100 nM | 40 to 100 nM |  | < 6 nM | < 6 nM |  |  |
| COc1cc2[nH]nc(-c3ccc(N4CCN(CCO)CC4)nc3)c2nc1-c1cccc2c1CCC2C#N (stereo not shown) [Example 114, 4-(3-(6-(4-(2-Hydroxyethyl)piperazin-1-yl)pyridin-3-yl)-6-methoxy-1H-pyrazolo[4,3-b]pyridin-5-yl)-2,3-dihydro-1H-indene-1-carbonitrile] |  |  |  | < 6 nM | < 6 nM | 6 to 40 nM | 6 to 40 nM |
| COc1cc2[nH]nc(-c3cnn(C4CN(C(=O)CO)C4)c3)c2nc1-c1cccc2c1CCC2 [Example 116, 1-(3-(4-(5-(2,3-Dihydro-1H-inden-4-yl)-6-methoxy-1H-pyrazolo[4,3-b]pyridin-3-yl)-1H-pyrazol-1-yl)azetidin-1-yl)-2-hydroxyethan-1-one] |  | 40 to 100 nM |  | < 6 nM | < 6 nM | 6 to 40 nM |  |
| COc1cc2[nH]nc(-c3cnn(C4CN(C(=O)CCN(C)C)C4)c3)c2nc1-c1cccc2c1CCC2 [Example 117, 1-(3-(4-(5-(2,3-Dihydro-1H-inden-4-yl)-6-methoxy-1H-pyrazolo[4,3-b]pyridin-3-yl)-1H-pyrazol-1-yl)azetidin-1-yl)-3-(dimethylamino)propan-1-one] |  | 40 to 100 nM |  | < 6 nM | < 6 nM | 6 to 40 nM |  |
| COc1cc2[nH]nc(-c3cnn(C4CN(C(=O)[C@H](C)N(C)C)C4)c3)c2nc1-c1cccc2c1CCC2 [Example 118, (S)-1-(3-(4-(5-(2,3-Dihydro-1H-inden-4-yl)-6-methoxy-1H-pyrazolo[4,3-b]pyridin-3-yl)-1H-pyrazol-1-yl)azetidin-1-yl)-2-(dimethylamino)propan-1-one] |  | 40 to 100 nM |  | < 6 nM | < 6 nM | 6 to 40 nM |  |
| COc1cc2[nH]nc(-c3cnn(C4CN(C(=O)[C@@H]5CCN5C)C4)c3)c2nc1-c1cccc2c1CCC2 [Example 119, (S)-(3-(4-(5-(2,3-Dihydro-1H-inden-4-yl)-6-methoxy-1H-pyrazolo[4,3-b]pyridin-3-yl)-1H-pyrazol-1-yl)azetidin-1-yl)(1-methylazetidin-2-yl)methanone] |  | 40 to 100 nM |  | < 6 nM | < 6 nM | 6 to 40 nM |  |
| COc1cc2[nH]nc(-c3cnn(C4CN(C(=O)CN5CCN(C)CC5)C4)c3)c2nc1-c1cccc2c1CCC2 [Example 120, 1-(3-(4-(5-(2,3-Dihydro-1H-inden-4-yl)-6-methoxy-1H-pyrazolo[4,3-b]pyridin-3-yl)-1H-pyrazol-1-yl)azetidin-1-yl)-2-(4-methylpiperazin-1-yl)ethan-1-one] |  | 40 to 100 nM |  | < 6 nM | < 6 nM | 6 to 40 nM |  |
| COc1cc2[nH]nc(-c3cnn(C4CN(C(=O)CN5CCC(O)CC5)C4)c3)c2nc1-c1cccc2c1CCC2 [Example 121, 1-(3-(4-(5-(2,3-Dihydro-1H-inden-4-yl)-6-methoxy-1H-pyrazolo[4,3-b]pyridin-3-yl)-1H-pyrazol-1-yl)azetidin-1-yl)-2-(4-hydroxypiperidin-1-yl)ethan-1-one] |  | 40 to 100 nM |  | < 6 nM | < 6 nM | 6 to 40 nM |  |
| COc1cc2[nH]nc(-c3cnn(C4CN(C(=O)[C@H](C)O)C4)c3)c2nc1-c1cccc2c1CCC2 [Example 124, (S)-1-(3-(4-(5-(2,3-Dihydro-1H-inden-4-yl)-6-methoxy-1H-pyrazolo[4,3-b]pyridin-3-yl)-1H-pyrazol-1-yl)azetidin-1-yl)-2-hydroxypropan-1-one] |  | 40 to 100 nM |  | < 6 nM | < 6 nM | 6 to 40 nM |  |
| COc1cc2[nH]nc(-c3cnn(C4CN(C(=O)[C@H]5C[C@H](O)C5)C4)c3)c2nc1-c1cccc2c1CCC2 [Example 125, (3-(4-(5-(2,3-Dihydro-1H-inden-4-yl)-6-methoxy-1H-pyrazolo[4,3-b]pyridin-3-yl)-1H-pyrazol-1-yl)azetidin-1-yl)((trans)-3-hydroxycyclobutyl)methanone] |  |  |  | < 6 nM | < 6 nM | 6 to 40 nM | 6 to 40 nM |
| COc1cc2[nH]nc(-c3cnn(C4CN(C(=O)[C@H]5C[C@@H](O)C5)C4)c3)c2nc1-c1cccc2c1CCC2 [Example 126, (3-(4-(5-(2,3-Dihydro-1H-inden-4-yl)-6-methoxy-1H-pyrazolo[4,3-b]pyridin-3-yl)-1H-pyrazol-1-yl)azetidin-1-yl)((cis)-3-hydroxycyclobutyl)methanone] |  |  |  | < 6 nM | < 6 nM | 6 to 40 nM | 6 to 40 nM |

Second part, the molecule after the results:

| IC50 [1, 5] | IC50 [2] | IC50 ([3]; read-out: FGFR2, wild-type un-phosphorylated FGFR2, pre-incubated for 4 hours) | IC50 [4] | IC50 [3] | IC50 [1, 6] | IC50 [2, 7] | Compound |
| --- | --- | --- | --- | --- | --- | --- | --- |
| 40 to 100 nM | > 100 nM | 6 to 40 nM | < 6 nM |  |  |  | COc1cc2[nH]nc(-c3ccc(C4CC4)nc3)c2nc1-c1cccc2c1CC(O)C2 (stereo not shown) [Example 97, 4-(3-(6-Cyclopropylpyridin-3-yl)-6-methoxy-1H-pyrazolo[4,3-b]pyridin-5-yl)-2,3-dihydro-1H-inden-2-ol] |
|  |  |  | < 6 nM | < 6 nM | 6 to 40 nM | 6 to 40 nM | COc1cc2[nH]nc(-c3ccc(C4CCN(C(C)=O)CC4)nc3)c2nc1-c1cccc2c1CCC2 [Example 99, 1-(4-(5-(5-(2,3-Dihydro-1H-inden-4-yl)-6-methoxy-1H-pyrazolo[4,3-b]pyridin-3-yl)pyridin-2-yl)piperidin-1-yl)ethan-1-one] |
| < 6 nM | 40 to 100 nM |  | < 6 nM | < 6 nM |  |  | COc1cc2[nH]nc(-c3cnn(C4CC(C#N)C4)c3)c2nc1-c1cccc2c1CCC2C#N (stereo not shown) [Example 111, 4-(3-(1-(3-Cyanocyclobutyl)-1H-pyrazol-4-yl)-6-methoxy-1H-pyrazolo[4,3-b]pyridin-5-yl)-2,3-dihydro-1H-indene-1-carbonitrile] |
|  | 40 to 100 nM |  | < 6 nM | < 6 nM | 6 to 40 nM |  | COc1cc2[nH]nc(-c3ccc(C4CCC(O)CC4)nc3)c2nc1-c1cccc2c1CCC2C#N (stereo not shown) [Example 113, 4-(3-(6-(4-Hydroxycyclohexyl)pyridin-3-yl)-6-methoxy-1H-pyrazolo[4,3-b]pyridin-5-yl)-2,3-dihydro-1H-indene-1-carbonitrile] |
|  |  |  | < 6 nM | < 6 nM | 6 to 40 nM | 6 to 40 nM | COc1cc2[nH]nc(-c3ccc(C4CCN(C(=O)CO)CC4)nc3)c2nc1-c1cccc2c1CCC2C#N (stereo not shown) [Example 115, 4-(3-(6-(1-(2-Hydroxyacetyl)piperidin-4-yl)pyridin-3-yl)-6-methoxy-1H-pyrazolo[4,3-b]pyridin-5-yl)-2,3-dihydro-1H-indene-1-carbonitrile] |
|  | 40 to 100 nM |  | < 6 nM | < 6 nM | 6 to 40 nM |  | COc1cc2[nH]nc(-c3cnn(C4CN(C(=O)[C@H]5CCN5C)C4)c3)c2nc1-c1cccc2c1CCC2 [Example 122, (R)-(3-(4-(5-(2,3-Dihydro-1H-inden-4-yl)-6-methoxy-1H-pyrazolo[4,3-b]pyridin-3-yl)-1H-pyrazol-1-yl)azetidin-1-yl)(1-methylazetidin-2-yl)methanone] |
|  |  |  | < 6 nM | < 6 nM | 6 to 40 nM | 6 to 40 nM | COc1cc2[nH]nc(-c3cnn(C4CN(C(=O)[C@@H](C)O)C4)c3)c2nc1-c1cccc2c1CCC2 [Example 123, (R)-1-(3-(4-(5-(2,3-Dihydro-1H-inden-4-yl)-6-methoxy-1H-pyrazolo[4,3-b]pyridin-3-yl)-1H-pyrazol-1-yl)azetidin-1-yl)-2-hydroxypropan-1-one] |

Reference: patent US12083124B2 (Incyte Corporation, priority 2019, dated 2024)
